# Patent US8293729B2 (Boehringer Ingelheim International GmbH, priority 2009, dated 2012)
# Target: T1, human GPR119 receptor (Homo sapiens, UniProt Q8TDV5, S329A/T327A)
# T1 construct: N-terminal leader […]; expressed in transfected cells
# T1 sequence (Q8TDV5 with tags, fused parts or gaps T327A/S329A): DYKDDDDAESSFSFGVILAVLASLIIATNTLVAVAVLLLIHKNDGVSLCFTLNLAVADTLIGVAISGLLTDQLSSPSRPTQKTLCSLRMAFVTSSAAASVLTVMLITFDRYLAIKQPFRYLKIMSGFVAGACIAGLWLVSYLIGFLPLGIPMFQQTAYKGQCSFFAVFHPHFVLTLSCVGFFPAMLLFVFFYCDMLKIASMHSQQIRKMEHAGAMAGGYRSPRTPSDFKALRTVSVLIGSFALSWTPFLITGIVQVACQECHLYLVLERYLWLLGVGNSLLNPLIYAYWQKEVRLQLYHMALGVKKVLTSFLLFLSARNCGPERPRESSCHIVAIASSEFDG
# Test: cAMP assay (LANCE cAMP-384) in HEK293 cells stably expressing mutant human GPR119 receptor
# Type: cell-based
# Settings: HEK293, 20 min; 10 μM; the 28th table; read-out: stimulation in % at 10 μM
# Description: Quantitative detection of cAMP accumulation from cells expressing human GPR119 receptor was achieved using Perkin Elmer's LANCE cAMP-384 Kit (Cat#AD0264) according to the manufacturer's protocol. Briefly, HEK293 cells stably expressing a mutant form of the human GPR119 receptor (Methionine 1 replaced with the amino acid sequence […] (SEQ ID NO: 1), and T327 & S329 changed to alanines) were grown to 50-70% confluency in cell culture media (DMEM, 10% heat inactivated Fetal Bovine Serum, 50 I.U./mL penicillin, 50 μg/mL streptomycin, 10 mM HEPES, 20 μg/mL G418 Sulfate). On the day of the assay, GPR119 stable HEK293 cells were lifted from the tissue culture plate and 1000 cells/well were incubated along with various concentrations of test compounds for 20 min at 37° C. Detection Buffer (50mM HEPES, 10mM calcium chloride, 0.35% Triton X-100, 1 mg/mL BSA) containing cAMP-specific antibody was then added to all wells and allowed to equilibrate in the dark for 10 minutes at room temperature. Upon equilibration, Detection Buffer containing europium-labeled cAMP tracer complex was added to all wells and allowed to react for 1 hour at room temperature. After 1 hour, bound europium-labeled cAMP tracer was measured using a Perkin Elmer ViewLux. The quantity of cAMP generated in each well was derived from a standard curve. EC50 was determined using nonlinear regression analysis of the cAMP values over a range of agonist concentration (12 points spanning the range from 30 μM to 100pM).
# For some compounds for which no EC50 value could be determined, the efficacy is provided at a single concentration (10 μM) yielding % stimulation values.
row,Structure (SMILES),activation at 10 µM
1,CC(C)OC(=O)N1CCC(ON=C2CCN(c3ncc(-n4cccn4)cn3)CC2)CC1 [Example 51-5],96%

# Same assay, conditions: HEK293, 20 min; at 10 μM; printed in EC50 column of the 36th table; read-out: stimulation in % at 10 μM
row,Structure (SMILES),activation at 10 µM
1,Cc1cc(CN2CCC(ON=C3CCN(c4ccc(S(C)(=O)=O)cc4F)CC3)CC2)oc1C [Example 66-34],75%
2,CC(C)CN1CCC(ON=C2CCN(c3ccc(S(C)(=O)=O)cc3F)CC2)CC1 [Example 66-21],64%
3,CS(=O)(=O)c1ccc(N2CCC(=NOC3CCN(Cc4cccnc4Cl)CC3)CC2)c(F)c1 [Example 66-51],66%

# Same assay, conditions: HEK293, 20 min; single concentration 10 μM; given where no EC50 value could be determined; read-out: % stimulation at 10 μM
row,Structure (SMILES),activation at 10 µM
1,CC(C)OC(=O)N1CCC(ON=C2CCN(c3cc(F)c(CN4CCOCC4)cc3F)CC2)CC1 [Example 5-4],69%

# Same assay, conditions: cAMP accumulation, HEK293 cells stably expressing mutant human GPR119; read-out: EC50
row,Structure (SMILES),EC50
1,CC(C)OC(=O)N1CCC(ON=C2CCN(c3c(F)c(F)c(C(N)=O)c(F)c3F)CC2)CC1 [Example 2-57],56 nM
2,CC(C)OC(=O)N1CCC(ON=C2CCN(c3cc(F)c(CN(C)S(C)(=O)=O)cc3F)CC2)CC1 [Example 18-2],150 nM
3,"CC(C)OC(=O)N1CCC(ON=C2CCN(c3ncc(CO)cc3F)CC2)CC1 [Example 53-1, 4-(3′-Fluoro-5′-hydroxymethyl-2,3,5,6-tetrahydro-[1,2′]bipyridinyl-4-ylideneaminooxy)-piperidine-1-carboxylic acid isopropyl ester]",224 nM
4,CC(C)OC(=O)N1CCC(ON=C2CCN(c3cc(F)c(-c4nccn4C)cc3F)CC2)CC1 [Example 27-16],5550 nM
5,CC(C)OC(=O)N1CCC(ON=C2CCN(c3cc(F)c(-c4cn[nH]c4)cc3F)CC2)CC1 [Example 27-10],177 nM
6,Cc1nnnn1Cc1cc(F)c(N2CCC(=NOC3CCN(C(=O)OC(C)C)CC3)CC2)cc1F [Example 14-15],39 nM
7,Cc1c(Cl)ncnc1N1CCC(=NOC2CCN(C(=O)OC(C)C)CC2)CC1 [Example 2-52],653 nM
8,CC(C)OC(=O)N1CCC(ON=C2CCN(c3cc(F)c(Cn4cccc5ncnc4-5)cc3F)CC2)CC1 [Example 14-7],713 nM
9,Cc1cnn(Cc2cc(F)c(N3CCC(=NOC4CCN(C(=O)OC(C)C)CC4)CC3)cc2F)c1 [Example 14-10],8 nM
10,Cc1cc(C(=O)O)nc(N2CCC(=NOC3CCN(C(=O)OC(C)C)CC3)CC2)n1 [Example 2-65],> 10000 nM
11,CC(C)OC(=O)N1CCC(ON=C2CCN(c3ncnc4ccsc34)CC2)CC1 [Example 2-15],4780 nM
12,"CCNC(=O)NCc1cc(F)c(N2CCC(=NOC3CCN(C(=O)OC(C)C)CC3)CC2)cc1F [Example 16-1, 4-(1-{4-[(3-Ethyl-ureido)-methyl]-2,5-difluoro-phenyl}-piperidin-4-ylideneaminooxy)-piperidine-1-carboxylic acid isopropyl ester]",168 nM
13,CC(C)OC(=O)N1CCC(ON=C2CCN(c3cc(F)c(N(S(C)(=O)=O)S(C)(=O)=O)cc3F)CC2)CC1 [Example 2-63],> 10000 nM
14,CC(C)OC(=O)N1CCC(ON=C2CCN(c3cc(F)c(CN(C)CCO)cc3F)CC2)CC1 [Example 5-3],> 10000 nM
15,"CC(=O)N(C)Cc1cc(F)c(N2CCC(=NOC3CCN(C(=O)OC(C)C)CC3)CC2)cc1F [Example 18-1, 4-(1-{4-[(Acetyl-methyl-amino)-methyl]-2,5-difluoro-phenyl}-piperidin-4-ylideneaminooxy)-piperidine-1-carboxylic acid isopropyl ester]",127 nM
16,CC(C)OC(=O)N1CCC(ON=C2CCN(c3cc(F)c(NS(N)(=O)=O)cc3F)CC2)CC1 [Example 38-1],197 nM

# Same assay, conditions: the 15th table; read-out: EC50
row,Structure (SMILES),EC50
1,CNCCN(C)C(=O)c1cc(F)c(N2CCC(=NOC3CCN(C(=O)OC(C)C)CC3)CC2)cc1F [Example 29-5],215 nM
2,"CC(C)OC(=O)N1CCC(ON=C2CCN(c3cc(F)c(C(=O)N(C)C)cc3F)CC2)CC1 [Example 29-1, 4-[1-(4-Dimethylcarbamoyl-2,5-difluoro-phenyl)-piperidin-4-ylideneaminooxy]-piperidine-1-carboxylic acid isopropyl ester]",129 nM

# Same assay, conditions: the 19th table; unit inferred; read-out: EC 50
row,Structure (SMILES),EC50
1,CCc1cnc(N2CCC(ON=C3CCN(c4cc(F)c(C(=O)N5CC[C@H](N)C5)cc4F)CC3)CC2)nc1 [Example 29-119],75 nM

# Same assay, conditions: the 28th table; read-out: EC50
row,Structure (SMILES),EC50
1,CC(C)OC(=O)N1CCC(ON=C2CCN(c3ncc(-n4cncn4)cn3)CC2)CC1 [Example 51-4],735 nM

# Same assay, conditions: the 29th table; read-out: EC50
row,Structure (SMILES),EC50
1,"CC(C)OC(=O)N1CCC(ON=C2CCN(c3ccc(CO)c(F)c3)CC2)CC1 [Example 52-1, 4-[1-(3-Fluoro-4-hydroxymethyl-phenyl)-piperidin-4-ylideneaminooxy]-piperidine-1-carboxylic acid isopropyl ester]",> 10000 nM

# Same assay, conditions: the 30th table; read-out: EC50
row,Structure (SMILES),EC50
1,CC(C)OC(=O)N1CCC(ON=C2CCN(c3ncc(Cn4ccnn4)cc3F)CC2)CC1 [Example 54-2],1060 nM
2,CC(C)OC(=O)N1CCC(ON=C2CCN(c3ncc(CS(C)(=O)=O)cc3F)CC2)CC1 [Example 54-7],484 nM

# Same assay, conditions: the 32nd table; read-out: EC50
row,Structure (SMILES),EC50
1,CS(=O)(=O)c1ccc(N2CCC(=NOC3CCN(c4ncc(Br)cn4)CC3)CC2)c(F)c1 [Example 63-19],77 nM
2,"CS(=O)(=O)c1ccc(N2CCC(=NOC3CCN(c4ccccn4)CC3)CC2)c(F)c1 [Example 63-1, 1-(2-Fluoro-4-methanesulfonyl-phenyl)-piperidin-4-one O-(3,4,5,6-tetrahydro-2H-[1,2′]bipyridinyl-4-yl)-oxime]",459 nM

# Same assay, conditions: the 33rd table; read-out: EC50
row,Structure (SMILES),EC50
1,CS(=O)(=O)c1ccc(N2CCC(=NOC3CCN(C(=O)OCCC4CCCCC4)CC3)CC2)c(F)c1 [Example 64-42],350 nM
2,CC(C)[C@H](N)COC(=O)N1CCC(ON=C2CCN(c3ccc(S(C)(=O)=O)cc3F)CC2)CC1 [Example 64-37],> 10000 nM
3,CS(=O)(=O)c1ccc(N2CCC(=NOC3CCN(C(=O)OCC4CC4)CC3)CC2)c(F)c1 [Example 64-2],101 nM
4,CC(N)COC(=O)N1CCC(ON=C2CCN(c3ccc(S(C)(=O)=O)cc3F)CC2)CC1 (stereo not drawn) [Example 64-35],> 10000 nM
5,CN1CCCC(OC(=O)N2CCC(ON=C3CCN(c4ccc(S(C)(=O)=O)cc4F)CC3)CC2)C1 (stereo not drawn) [Example 64-19],> 10000 nM
6,CCN(CC)CCCOC(=O)N1CCC(ON=C2CCN(c3ccc(S(C)(=O)=O)cc3F)CC2)CC1 [Example 64-29],> 10000 nM
7,CN1CCC(OC(=O)N2CCC(ON=C3CCN(c4ccc(S(C)(=O)=O)cc4F)CC3)CC2)C1 (stereo not drawn) [Example 64-13],> 10000 nM

# Same assay, conditions: the 34th table, compounds 65-1 to 65-24; read-out: EC50
row,Structure (SMILES),EC50
1,CC(C)NC(=O)CN1CCC(ON=C2CCN(c3ccc(S(C)(=O)=O)cc3F)CC2)CC1 [Example 65-4],> 10000 nM
2,CS(=O)(=O)c1ccc(N2CCC(=NOC3CCN(CC(=O)Oc4ccccc4)CC3)CC2)c(F)c1 [Example 65-6],854 nM
3,CS(=O)(=O)c1ccc(N2CCC(=NOC3CCN(C(=S)NC4CCCCC4)CC3)CC2)c(F)c1 [Example 65-9],1800 nM

# Same assay, conditions: the 36th table, compounds 66-1 to 66-51; read-out: EC50
row,Structure (SMILES),EC50
1,"Cn1cccc1CN1CCC(ON=C2CCN(c3ccc(S(C)(=O)=O)cc3F)CC2)CC1 [Example 66-1, 1-(2-Fluoro-4-methanesulfonyl-phenyl)-piperidin-4-one O-[1-(1-methyl-1H-Pyrrol-2-ylmethyl)-piperidin-4-yl]-oxime]",> 10000 nM
2,CC(C)CCN1CCC(ON=C2CCN(c3ccc(S(C)(=O)=O)cc3F)CC2)CC1 [Example 66-23],> 10000 nM
3,CS(=O)(=O)c1ccc(N2CCC(=NOC3CCN(Cc4ccccc4C(F)(F)F)CC3)CC2)c(F)c1 [Example 66-29],1220 nM

# Same assay, conditions: the 37th table, compounds 66-52 to 66-64; read-out: EC50
row,Structure (SMILES),EC50
1,CS(=O)(=O)c1cc(F)c(N2CCC(=NOC3CCN(Cc4ccc(-c5ccccn5)cc4)CC3)CC2)cc1F [Example 66-52],926 nM
2,CCCc1ccc(CN2CCC(ON=C3CCN(c4cc(F)c(S(C)(=O)=O)cc4F)CC3)CC2)cc1F [Example 66-60],31 nM

# Same assay, conditions: the 41st table, compounds 73-1, 73-2; unit inferred; read-out: EC50
row,Structure (SMILES),EC50
1,CS(=O)(=O)c1ccc(N2CCC(=NOC3CCN(C(=O)N4CCCC4)CC3)CC2)c(F)c1 [Example 73-2],1510 nM

# Same assay, conditions: the 44th table, compounds 77-1 to 77-14; read-out: EC50
row,Structure (SMILES),EC50
1,CCc1cnc(N2CCC(ON=C3CCN(c4cc(F)c(CC(=O)NC5CCNCC5)cc4F)CC3)CC2)nc1 [Example 77-10],20 nM
2,CCc1cnc(N2CCC(ON=C3CCN(c4cc(F)c(CC(=O)N5CCC(N)CC5)cc4F)CC3)CC2)nc1 [Example 77-2],22 nM
